The values below come from US20080207521A1, “PEPTIDE LIGAND TO IMPAIR CANCER CELL MIGRATION” (priority 2005, published 2008).

Holding throughout (format): cell-based, human
Assay [1] has as its system Wnt-5a antisense HB2 cells. Kind of assay: Adhesion of Wnt-5a antisense HB2 cells to collagen I (MTS). As to conditions: for adhesion to collagen I, concentration-dependent analysis: 95% pure peptides, different concentrations. The protocol: (§1) The adhesion assay was carried out as previously described (12). Briefly, cells were serum-depleted for 16 h, detached with Versene and allowed to adhere as single cells to collagen I for 60 (MDA-MB-468) or 90 min (HB2) at 37° C. Non-adherent cells were removed by washing with PBS. The adherent cells were incubated with a (3-(4,5-dimethylthiazol-2-yl)-5-(3-carboxymethoxyphenyl)-2-(-4-sulfophenyl)-2H-tetrazolium, inner salt (MTS) dye reduction assay (Promega, Madison, Wis.) and absorbance was measured at 490 nm using a Fluostar microplate reader from BMG LabTechnologies (GmbH, Offenberg, Germany). In each experiment a single value was calculated based on the mean of adhesion from six separate wells after the adhesion to plastic alone had been subtracted. The CM used as a control in the adhesion assays was obtained from confluent Wnt-5a overexpressing HB2 cells (for experiments with Wnt-5a antisense HB2 cells) or Wnt-5a overexpressing MCF-7 cells (for MDA-MB-468 cells) stably transfected with a vector over-expressing Wnt5a. A collected CM was always used within three days.
To control the specificity of the CM, it was incubated with either the Wnt-5a or a control Ab for 45 min at 37° C. Subsequently 10 μl Protein A Sepharose was added for 30 min and after the protein A-bound antibodies were collected by centrifugation the remaining supernatants were used for the experiments.
Effects of crude peptides on adhesion of Wnt-5a antisense HB2 cells to collagen. (A) Single cells were allowed to adhere for 90 min in the absence or presence of the indicated crude peptides (100 μM). The amounts of adhesive cells were analyzed as described in the methods and the results are given as means±SEM of 7 separate experiments. (B) Adhesion of Wnt-5a antisense HB2 cells to collagen was analyzed after pre-treating the cells with an anti-[…]1-integrin Ab for 45 min before letting them adhere for 90 min in the absence or presence of peptides 171 or 175 (100 μM) or CM. The amounts of adhesive cells were analyzed as described in the methods and the results are given as means±SEM of 6 separate experiments (C) The diagram outlines a control of the presently used CM. The cells were allowed to adhere to collagen I-coated wells in the absence or presence of normal CM or Wnt-5a depleted CM. The amounts of adhesive cells were analyzed as described in the methods and the results are given as means±SEM of 6 separate experiments. Ns=not significant, * p<0.05, ** p<0.01 and *** p<0.001.
Effects of the selected and pure peptides on the ability of Wnt-5a antisense HB2 cells to adhere and migrate. (A-E) The ability of the cells to adhere to collagen type I-coated wells was analyzed as previously described for FIG. 2 in the absence or presence of different concentrations of the indicated peptide. (F) Effect of the indicated peptides on migration of Wnt-5a antisense HB2 in a transwell migration assay. The cells were allowed to migrate for 18 h in the absence or presence of 100 μM peptide or 0.4 μg/ml of recombinant Wnt5a. The data are given as means±SEM of 6-7 separate experiments, each performed in triplicate. * p<0.05 and ** p<0.01.

In the next assay the test system is DDR1. Description: Collagen-induced DDR1 phosphorylation in Wnt-5a antisense HB2 cells (immunoprecipitation/Western blot). The note with it: crude peptide (approximately 65% pure) 100 μM; 90 min on collagen I. The procedure: The phosphorylation status of DDR1 was analyzed as previously described (12), with the following modifications. After serum-depletion for 16 h, the cells were detached with Versene and then allowed to adhere to collagen I for 60 (MDA-MB-468) or 90 min (HB2) at 37° C. The experiments were terminated by lysing both adherent and non-adherent cells with a lysis buffer (50 mM Tris pH 7.4, 1% Triton-X, 5 mM EDTA, 5 mM EGTA, 50 mM NaCl, 10 μg/ml aprotinin, 2.5 mM benzamidine, 1 mM pefabloc, 1 μg/ml leupeptin and 1 mM Na3VO4). For immunoblotting an anti-DDR1 rabbit polyclonal Ab, sc-532 (Santa Cruz Biotech, Santa Cruz, Calif.) was used at a dilution of 1:10,000. The Ab recognizes DDR1b/c, which is essential because collagen only induces phosphorylation of the b or c isoforms of DDR1 in mammary epithelial cells (10).
Effects of crude peptides on collagen-induced DDR1 phosphorylation in Wnt-5a antisense HB2 cells. Single cells were allowed to adhere to collagen I-coated plates in the presence of the indicated crude peptide (100 μM). (A) Experiments performed in the presence of peptides 167-173. (B) Experiments performed in the presence of peptides 175-180. After 90 min the cells were lysed and DDR1 immunoprecipitated. Subsequently, the immunoprecipitates were subjected to Western blot analysis with an anti-phosphotyrosine Ab and then, after stripping, with an anti-DDR1 Ab to ascertain equal loading. The blots shown are representative of 3 separate experiments The diagrams show densitometric analysis of DDR1 phosphorylation, expressed as per cent of control.
(Immunoblotting shows a protein as a band on a membrane.)

The subject of a further assay is MDA-MB-468 cells. Kind of assay: Adhesion of MDA-MB-468 breast cancer cells to collagen I (MTS). As to conditions: for adhesion to collagen I, N-terminal deletion variants and formylation of peptide 175: 60 min; for MDA-MB-468 cell adhesion: control 15.3±3.6, n=6. The procedure:
as §1
Peptide-induced effects on adhesion and DDR1 phosphorylation in MDA-MB-468 breast cancer cells. (A) Western blot analysis of Wnt-5a protein expression in Wnt-5a antisense and Wnt-5a over-expressing HB2 cells in comparison to MDA-MB-468 tumour cells. The blot is representative of 9 separate experiments. (B) Peptide-induced effects on MDA-MB-468 tumour cell adhesion. The cells were allowed to adhere to collagen type I-coated wells for 60 min in the absence or presence of 100 μM of the indicated peptides or CM. The amounts of adhesive cells were analyzed as described in the methods and the results are given as means±SEM of 8 separate experiments. (C) MDA-MB-468 cell adhesion to collagen I-coated wells in the absence or presence of peptide 175 or a peptide with same amino acid sequence except for a substitution of cysteine for alanine (175Ala) or CM. The amount of adherent cells was estimated as in panel A and expressed as means±SEM of 6 separate experiments, ns=not significant, ** p<0.01 and *** p<0.001. (D) Single MDA-MB-468 cells were allowed to adhere to collagen I-coated plates for 60 min in the absence or presence of the indicated peptides (100 μM), CM or recombinant Wnt-5a (0.8 µg/ml). DDR1 immunoprecipitates were Western blotted with first an anti-phosphotyrosine Ab and then after stripping with an anti-DDR1 Ab. The blots shown are representative of 6 separate experiments.
Effects of peptide 175 modifications on its ability to induce MDA-MB-468 tumour cell adhesion and migration. (A) The cells were allowed to adhere for 60 min to collagen-I coated wells in the absence or presence of peptide 175, three stepwise N-terminal deletion variants of peptide 175 or a formylated version of the tested hexapeptide derived from peptide 175. The amounts of adhesive cells were analyzed as described in the methods and the results are given as means±SEM of 6 separate experiments. (B and C) The cells were allowed to migrate for 18 h in the absence or presence of 1 or 10 μM of peptide 175 (B) or the formylated hexapeptide (C). The data are given as means±SEM of 6 separate experiments, each performed in triplicate. * p<0.05, p<0.01.

Ends that are not written are not given here.

For “DARERERIHAKGSYE [peptide 168, Wnt-5a aa 183-197]”, the “adhesion to collagen I” value in assay [1] (crude peptide (65% pure) 100 μM, 90 min) was “did not have any effect on adhesion”. In the assay with DDR1, the DDR1 phosphorylation result is given as “significant DDR1 phosphorylation”.
Turning to “EGMDGCEL (Human) [octapeptide, N-terminal deletion variant of peptide 175]”, the “adhesion to collagen I, N-terminal deletion variants and formylation of peptide 175” value with MDA-MB-468 cells is recorded as “still had adhesion-increasing effects”.
Turning to “LGTQGRLCNKTSEGMDGCEL (Human) [peptide 174, Wnt-5a aa 303-322]”, the “adhesion to collagen I, concentration-dependent analysis” value in assay [1] is “not as effective as the shorter peptide 175”.
For “MDGCEL [hexapeptide, N-terminal deletion variant of peptide 175]”, in the assay on MDA-MB-468 cells, the “adhesion to collagen I, N-terminal deletion variants and formylation of peptide 175” value was “no effect was detectable and none”.
On to “VKAKKATEIVDQFVA [compound 170, Wnt-5a aa 350-364; the 3 cysteines exchanged to alanines]”, for which the “adhesion to collagen I, concentration-dependent analysis” value in assay [1] is given as “lost or less consistent”. In addition, the DDR1 phosphorylation result in the assay with DDR1 is recorded as “significant DDR1 phosphorylation”.
fMet-Leu-Phe (MLF) [reference compound]: the figures for the MDA-MB-468 cell adhesion in the assay on MDA-MB-468 cells and in the assay with MDA-MB-468 cells (listed as N-formyl-Met-Leu-Phe) were 15.7±4.5 and “no effect”, respectively.
